Measured values taken from US8772319B2 (priority 2004, dated 2014).
Values joined by “and” are separate entries in the source; they are usually repeats but may differ in a detail not shown here. Equal entries are not always repeated. Where two headings read alike, the source gives them in different places.

Legend:
[1] = target: T1, human norepinephrine transporter (hNET) (Homo sapiens, UniProt P23975); test: biochemical; details: Table 5; [125I]RTI-55; oxalate salts; read-out: NET binding affinity Ki
T1 sequence (P23975 whole entry): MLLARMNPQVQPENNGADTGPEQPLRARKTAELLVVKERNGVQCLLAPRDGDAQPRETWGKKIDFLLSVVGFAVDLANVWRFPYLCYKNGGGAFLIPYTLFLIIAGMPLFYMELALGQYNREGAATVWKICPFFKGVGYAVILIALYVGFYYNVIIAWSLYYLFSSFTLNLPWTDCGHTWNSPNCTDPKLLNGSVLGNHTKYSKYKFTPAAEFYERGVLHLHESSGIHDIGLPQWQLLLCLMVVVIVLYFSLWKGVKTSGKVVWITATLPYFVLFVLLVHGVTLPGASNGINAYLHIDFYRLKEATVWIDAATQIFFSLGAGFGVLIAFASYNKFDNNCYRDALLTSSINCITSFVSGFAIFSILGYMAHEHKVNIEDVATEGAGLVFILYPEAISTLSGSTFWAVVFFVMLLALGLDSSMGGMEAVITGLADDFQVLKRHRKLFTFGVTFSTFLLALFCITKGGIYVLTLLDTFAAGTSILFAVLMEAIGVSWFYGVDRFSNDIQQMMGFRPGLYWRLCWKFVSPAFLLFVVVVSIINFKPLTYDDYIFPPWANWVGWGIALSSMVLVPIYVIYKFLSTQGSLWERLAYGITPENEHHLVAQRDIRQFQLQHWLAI

5-HT1A receptor = target: T2, 5-HT1A receptor (Homo sapiens, UniProt P08908); test: 5-HT1A receptor binding, HA7 cells, [3H]8-OH-DPAT
T2 construct: expressed in transfected cells; host or cells: HA7 cells
T2 sequence (P08908 1-422): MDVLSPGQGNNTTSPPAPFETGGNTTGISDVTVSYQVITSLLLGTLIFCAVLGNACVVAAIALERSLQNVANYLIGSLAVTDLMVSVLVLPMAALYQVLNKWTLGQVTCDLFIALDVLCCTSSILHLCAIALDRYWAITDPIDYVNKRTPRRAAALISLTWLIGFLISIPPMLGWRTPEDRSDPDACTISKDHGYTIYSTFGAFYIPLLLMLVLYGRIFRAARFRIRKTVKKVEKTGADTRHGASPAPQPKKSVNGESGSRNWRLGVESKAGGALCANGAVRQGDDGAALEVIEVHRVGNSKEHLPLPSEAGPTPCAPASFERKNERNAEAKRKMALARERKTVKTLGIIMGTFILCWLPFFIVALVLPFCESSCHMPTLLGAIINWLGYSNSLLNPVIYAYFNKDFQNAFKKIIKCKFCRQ

[2] = target: T3, human dopamine transporter (hDAT) (Homo sapiens, UniProt Q01959); test: cell-based; details: for IC50: Reuptake Inhibition [3H]DA IC50, Table 6; for Discrimination Ratios (DR) [3H]DA reuptake/DAT binding: Table 6
T3 sequence (Q01959 whole entry): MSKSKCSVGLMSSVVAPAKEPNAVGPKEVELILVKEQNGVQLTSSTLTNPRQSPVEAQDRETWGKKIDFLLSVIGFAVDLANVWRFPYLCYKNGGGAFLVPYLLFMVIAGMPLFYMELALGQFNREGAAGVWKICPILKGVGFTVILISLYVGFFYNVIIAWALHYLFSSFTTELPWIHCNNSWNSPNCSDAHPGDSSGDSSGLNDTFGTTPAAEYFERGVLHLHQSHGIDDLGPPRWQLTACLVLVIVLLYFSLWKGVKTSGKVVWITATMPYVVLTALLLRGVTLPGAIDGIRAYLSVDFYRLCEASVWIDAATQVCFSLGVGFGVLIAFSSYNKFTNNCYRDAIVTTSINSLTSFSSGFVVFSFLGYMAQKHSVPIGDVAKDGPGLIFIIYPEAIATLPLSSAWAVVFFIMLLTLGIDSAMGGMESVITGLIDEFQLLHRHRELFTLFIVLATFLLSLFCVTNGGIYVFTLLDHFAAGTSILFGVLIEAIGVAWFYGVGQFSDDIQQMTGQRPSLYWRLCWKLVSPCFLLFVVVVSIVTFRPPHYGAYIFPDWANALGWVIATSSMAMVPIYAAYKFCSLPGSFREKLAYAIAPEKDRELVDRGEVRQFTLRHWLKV

5-HT2A receptor = target: T4, 5-HT2A receptor (Rattus norvegicus, UniProt P14842); test: 5-HT2A receptor binding, NIH-3T3-GF6 cells, [3H]ketanserin
T4 construct: expressed in transfected cells; host or cells: NIH-3T3-GF6 cells
T4 sequence (P14842 whole entry): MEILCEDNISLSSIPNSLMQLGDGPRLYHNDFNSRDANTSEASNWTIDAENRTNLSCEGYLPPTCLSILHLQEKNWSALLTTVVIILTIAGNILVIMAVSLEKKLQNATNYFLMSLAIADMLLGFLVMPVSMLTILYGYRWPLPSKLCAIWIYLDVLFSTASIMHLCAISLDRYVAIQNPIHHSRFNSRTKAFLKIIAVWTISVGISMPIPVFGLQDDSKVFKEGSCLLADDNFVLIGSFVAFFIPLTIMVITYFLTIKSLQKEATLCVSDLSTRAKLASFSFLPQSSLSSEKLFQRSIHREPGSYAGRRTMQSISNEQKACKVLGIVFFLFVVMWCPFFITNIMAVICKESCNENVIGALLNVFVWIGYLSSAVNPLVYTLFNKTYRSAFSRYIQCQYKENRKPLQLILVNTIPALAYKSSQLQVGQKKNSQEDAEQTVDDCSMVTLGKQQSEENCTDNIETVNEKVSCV

[3] = target: T5, human serotonin transporter (hSERT) (Homo sapiens, UniProt P31645); test: biochemical; details: Table 5; [125I]RTI-55; oxalate salts; read-out: SERT binding affinity Ki
T5 sequence (P31645 whole entry): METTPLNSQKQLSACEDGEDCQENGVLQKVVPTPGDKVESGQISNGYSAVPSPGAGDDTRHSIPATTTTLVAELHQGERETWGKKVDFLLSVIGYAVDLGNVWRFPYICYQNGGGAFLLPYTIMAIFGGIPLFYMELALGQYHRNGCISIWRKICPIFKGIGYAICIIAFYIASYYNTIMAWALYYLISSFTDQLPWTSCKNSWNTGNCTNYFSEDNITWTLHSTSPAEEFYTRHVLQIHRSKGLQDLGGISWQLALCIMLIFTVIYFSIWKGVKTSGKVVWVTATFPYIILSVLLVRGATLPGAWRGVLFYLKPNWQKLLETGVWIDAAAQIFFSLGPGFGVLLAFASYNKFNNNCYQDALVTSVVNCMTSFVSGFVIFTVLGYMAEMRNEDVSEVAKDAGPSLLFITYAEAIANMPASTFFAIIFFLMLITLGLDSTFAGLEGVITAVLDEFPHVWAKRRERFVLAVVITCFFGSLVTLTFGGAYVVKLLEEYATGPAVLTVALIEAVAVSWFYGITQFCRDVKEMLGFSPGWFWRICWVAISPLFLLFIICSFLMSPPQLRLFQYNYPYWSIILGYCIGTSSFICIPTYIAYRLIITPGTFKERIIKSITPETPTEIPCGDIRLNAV

5-HT2C receptor = target: T6, 5-HT2C receptor (Rattus norvegicus, UniProt P08909); test: 5-HT2C receptor binding, NIH-3T3-P cells, [3H]mesulergine
T6 construct: expressed in transfected cells; host or cells: NIH-3T3-P cells
T6 sequence (P08909 33-460): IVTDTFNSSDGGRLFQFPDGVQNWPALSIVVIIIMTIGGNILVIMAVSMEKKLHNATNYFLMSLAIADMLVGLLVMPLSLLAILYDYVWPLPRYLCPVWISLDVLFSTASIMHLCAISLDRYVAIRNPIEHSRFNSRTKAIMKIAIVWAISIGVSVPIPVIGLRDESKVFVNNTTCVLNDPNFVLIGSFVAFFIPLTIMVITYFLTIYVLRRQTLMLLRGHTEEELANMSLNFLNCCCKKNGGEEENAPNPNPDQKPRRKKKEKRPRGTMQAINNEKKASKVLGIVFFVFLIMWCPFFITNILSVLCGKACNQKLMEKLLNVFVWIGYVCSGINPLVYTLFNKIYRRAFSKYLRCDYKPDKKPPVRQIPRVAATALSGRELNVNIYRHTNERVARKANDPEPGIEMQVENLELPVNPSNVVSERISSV

D2 receptor [4] = target: T7, D2 receptor (Homo sapiens, UniProt P14416); test: cell-based; details: read-out: D2 Antagonist activity IC50
T7 construct: expressed in transfected cells; host or cells: CHOp- cells (CHOp-D2)
T7 sequence (P14416 whole entry): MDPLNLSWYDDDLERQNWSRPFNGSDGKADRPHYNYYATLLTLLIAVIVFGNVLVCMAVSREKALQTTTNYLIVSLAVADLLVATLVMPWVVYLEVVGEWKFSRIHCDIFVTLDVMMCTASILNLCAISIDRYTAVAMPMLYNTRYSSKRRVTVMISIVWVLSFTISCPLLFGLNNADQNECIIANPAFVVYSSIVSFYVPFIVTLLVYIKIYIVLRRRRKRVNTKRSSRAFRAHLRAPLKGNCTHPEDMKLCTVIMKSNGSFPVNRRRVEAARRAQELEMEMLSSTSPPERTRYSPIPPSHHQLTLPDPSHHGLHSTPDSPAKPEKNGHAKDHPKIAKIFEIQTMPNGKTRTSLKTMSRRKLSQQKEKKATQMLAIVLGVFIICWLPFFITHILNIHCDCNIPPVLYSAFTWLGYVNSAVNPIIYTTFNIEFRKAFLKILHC

D3 receptor [5] = target: T8, D3 receptor (Homo sapiens, UniProt P35462); test: D3 receptor binding, CHOp- cells, [3H]YM-09151-2
T8 construct: expressed in transfected cells; host or cells: CHOp- cells (CHOp-D3)
T8 sequence (P35462 whole entry): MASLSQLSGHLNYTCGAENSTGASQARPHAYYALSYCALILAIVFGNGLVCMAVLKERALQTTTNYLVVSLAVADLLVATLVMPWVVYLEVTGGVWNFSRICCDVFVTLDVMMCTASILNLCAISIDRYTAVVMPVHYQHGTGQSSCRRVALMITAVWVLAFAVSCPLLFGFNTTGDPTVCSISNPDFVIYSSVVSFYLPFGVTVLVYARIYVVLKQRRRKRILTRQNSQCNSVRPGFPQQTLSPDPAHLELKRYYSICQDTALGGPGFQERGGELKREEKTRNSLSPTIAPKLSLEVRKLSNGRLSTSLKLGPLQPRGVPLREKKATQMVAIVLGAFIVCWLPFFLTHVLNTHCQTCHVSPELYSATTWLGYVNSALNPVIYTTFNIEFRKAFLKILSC

[6] = target: T1, human norepinephrine transporter (hNET); test: cell-based; details: Table 6; read-out: Reuptake Inhibition [3H]NE IC50
D2 receptor [7] = target: T7, D2 receptor; test: D2 receptor binding, CHOp- cells, [3H]YM-09151-2
D3 receptor [8] = target: T8, D3 receptor; test: Inhibition of quinpirole-stimulated mitogenesis ([3H]thymidine incorporation), CHOp-D3 cells; assay type: cell-based
[9] = target: T5, human serotonin transporter (hSERT); test: cell-based; details: Reuptake Inhibition [3H]5-HT IC50, Table 6
[10] = target: T3, human dopamine transporter (hDAT); test: biochemical; assay type: binding
D1 receptor = target: T9, D1 receptor (Homo sapiens, UniProt P21728); test: D1 receptor binding, LHD1 cells, [3H]SCH 23,390
T9 construct: expressed in transfected cells; host or cells: LHD1 cells
T9 sequence (P21728 whole entry): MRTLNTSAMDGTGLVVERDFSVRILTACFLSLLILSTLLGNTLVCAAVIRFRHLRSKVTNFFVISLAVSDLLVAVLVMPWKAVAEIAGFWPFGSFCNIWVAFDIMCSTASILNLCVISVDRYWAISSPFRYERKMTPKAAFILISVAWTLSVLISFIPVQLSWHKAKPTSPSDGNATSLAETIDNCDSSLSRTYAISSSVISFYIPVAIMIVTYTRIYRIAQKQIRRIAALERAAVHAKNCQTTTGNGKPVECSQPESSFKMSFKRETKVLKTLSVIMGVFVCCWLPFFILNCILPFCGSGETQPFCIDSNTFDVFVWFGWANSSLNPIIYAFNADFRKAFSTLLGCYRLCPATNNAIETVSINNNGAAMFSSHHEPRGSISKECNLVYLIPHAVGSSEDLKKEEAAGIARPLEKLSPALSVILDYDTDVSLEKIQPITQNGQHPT

male Swiss-Webster mice [11] = test: Locomotor activity, compound alone, 1-h session; assay type: in vivo, mouse
Experimental: (§1) 3. Locomotor Activity. […] Panels of infrared beams (16 beams) and corresponding photodetectors were located in the horizontal direction along the sides of each activity chamber. […] Just prior to placement in the apparatus, all mice received a saline injection IP. In all studies, horizontal activity (interruption of 1 photocell beam) was measured for 1-h within 10-min periods. Testing was conducted with one mouse per activity chamber. […] Plot the mean (±SEM) maximal stimulant activity (total counts in the 30 min period divided by 3) vs dose. Perform a log10 transformation of the 30 min period average counts for individual subjects to homogenize variances for subsequent analyses. […] Fit the 30 min period average counts across subjects to a function of log10 dose using least-squares curve-fitting analyses (i.e. TableCurve software from Jandel). Estimate the maximum effect from the resultant dose-response curve. […] Determine the ED50 (dose that produces ½ maximal stimulant activity) from a linear regression analysis of the ascending portion (up to the dose that produces a maximal effect) of the curve. […] Plot the mean (±SEM) activity (total counts in the 30 min period divided by 3) vs dose. Perform a log10 transformation of the 30 min period average counts for individual subjects to homogenize variances for subsequent analyses. Conduct an ANOVA and contrast (specified a priori) each dose of the test compound to the vehicle to determine significant (p<0.05) dose effects. Conduct a linear least-squares regression analysis; regress the min period average counts across subjects over the descending portion of the curve against the log10 dose of the test compound. […] Perform a log10 transformation of the 30 min period average counts for individual subjects to homogenize variances for subsequent analyses. […] Conduct a linear least-squares regression analysis; regress the 30 min period average counts across subjects over the descending portion of the curve against the log10 dose of the test compound. […] Locomotor Activity 8-hour time course/dose response study. […] A panel of infrared beams (16 beams) and corresponding photodetectors were located in the horizontal direction along the sides of each activity chamber. A 7.5-W incandescent light above each chamber provided dim illumination. Fans provided an 80-dB ambient noise level within the chamber. […] In all studies, horizontal activity (interruption of photocell beams) was measured for 8-h within 10-min periods, beginning at 0800 hrs (2 hours after lights on). Testing was conducted with one mouse per activity chamber. Compound alone study.

male Swiss-Webster mice [12] = test: Locomotor activity 8-hour time course/dose response study
Experimental: as §1

male Swiss-Webster mice [13] = test: Cocaine/compound interaction study on locomotor activity; assay type: in vivo, mouse
[14] = Table 7, rat receptors, NIH-3T3-GF6 cells, [3H]ketanserin, read-out: 5-HT2A Affinity Ki
[15] = Table 7, rat receptors, [3H]mesulergine, read-out: 5-HT2C Affinity Ki
[16] = Table 7, CHOp- cells, [3H]YM-09151-2, read-out: D3 Affinity Ki
[17] = Table 7, CHOp- cells, [3H]YM-09151-2, read-out: D2 Affinity Ki
[18] = Table 7, LHD1 cells, [3H]SCH 23,390, read-out: D1 Affinity Ki

Compound | Ki (5-HT1A receptor) | IC50 [2] | Discrimination Ratios (DR) [3H]DA reuptake/DAT binding [2] | Ki (5-HT2A receptor; [14]) | Ki [3] | Ki (5-HT2C receptor; [15]) | IC50 (D2 receptor [4]) | Ki (D3 receptor [5]; [16]) | IC50 [6] | Ki (D2 receptor [7]; [17]) | IC50 (D3 receptor [8]) | IC50 [9] | Binding Ratios NET/DAT ([10]; Table 5) | Binding Ratios SERT/DAT ([10]; Table 5) | Ki (D1 receptor; [18]) | also measured
O=C(c1ccccc1)N1CCN(CCCCOC(c2ccc(F)cc2)c2ccc(F)cc2)CC1 [Compound 40, 1-Benzoyl-4-[1-[bis(4-fluorophenyl)methoxy]-4-butyl]piperazine] | 1560 ± 271 nM | 640 ± 240 nM | 32.5 | 4800 ± 2090 nM | 87 ± 43 nM | 4.64 ± 0.586 µM | 183 nM | 119 ± 49.8 nM | 32 ± 10 nM | 95.5 ± 19.7 nM | 222 nM | 2170 ± 370 nM | 18.5 | 4.4 | 6.64 ± 0.313 µM | Ki [1]: 365 ± 69 nM; Ki [10]: 19.7 ± 2.5 nM
Fc1ccc(C(OCCCCN2CCNC(c3ccccc3)C2)c2ccc(F)cc2)cc1 (stereo not drawn) [Compound 28, 2-Phenyl-4-[4-[bis(4-fluorophenyl)methoxy]butyl]piperazine] | 2250 ± 359 nM | 550 ± 140 nM | 144 and 144.4 | 1490 ± 352 nM | 74.6 ± 5.8 nM | 6.7 ± 0.437 µM | 164 nM | 677 ± 262 nM | 290 ± 50 nM | 715 ± 404 nM | 629 nM | 700 ± 260 nM | 49.9 | 19.6 | 6.15 ± 0.541 µM | ED50 (male Swiss-Webster mice [11]; Mus musculus, ip, 1 h, read-out: ED50, dose producing 1/2 maximal stimulant activity (S, stimulation)): 1.52 mg/kg; mode of action (male Swiss-Webster mice [11]; Table 8, ligand alone study): monophasic; ME/CME, Maximal Effect/Cocaine Maximal Effect (male Swiss-Webster mice [11]; Table 8, mouse locomotor activity): 0.30; effect on spontaneous LMA (male Swiss-Webster mice [11]; mouse, compound alone): significant increase; ED50 (male Swiss-Webster mice [12]; Mus musculus, ip, 8 h, read-out: ED50, dose producing 1/2 maximal stimulant activity (S, stimulation)): 7.6 mg/kg; ME/CME, Maximal Effect/Cocaine Maximal Effect (male Swiss-Webster mice [12]; Table 9, 8 hours): 0.30; mode of action (male Swiss-Webster mice [12]; Table 9, ligand alone study, 8 hours): biphasic; ID50, dose producing 1/2 maximal depressant activity (I, inhibition) (male Swiss-Webster mice [12]; Table 9, mouse, IP, 8 hours): 36.4/I^e,f mg/kg; Attenuation of cocaine-induced LMA (male Swiss-Webster mice [13]; 20 mg/kg of cocaine): Attenuation; AD50, dose attenuating cocaine-induced stimulation by 50% (male Swiss-Webster mice [13]; Table 8, ligand-cocaine interaction study, 20 mg/kg cocaine IP): 50.27 mg/kg; Ki ([10]; Table 5, [125I]RTI-55, oxalate salts, read-out: DAT binding affinity Ki): 3.81 ± 0.84 nM
Fc1ccc(C(OCCCCN2CCN(c3ccc(Cl)cc3)CC2)c2ccc(F)cc2)cc1 [Compound 34, 1-(4-Chlorophenyl)-4-[4-[bis(4-fluorophenyl)methoxy]butyl]piperazine] | > 10000 nM | – | 23.4 | – | – | – | – | – | – | – | 2.55 nM | – | 7.6 | 0.7 | – | Ki (5-HT2A receptor): 1150 ± 44.2 nM; Ki (5-HT2C receptor): > 10 µM; Ki (D3 receptor [5]): 340 ± 143 nM; Ki (D2 receptor [7]): > 10000 nM; antagonistic activity at D3 site (D3 receptor [8]; Table 7): selective and strong antagonistic activity; Ki (D1 receptor): > 10 µM
